Drawing on US9938249B2, “Anti-amyloid compounds containing benzofurazan” (Treventis Corporation, priority 2014, dated 2018), this text covers IC50 and inhibition for 23 molecules.

Where only a bound is given, the exact number is not on record here.

The target of assay [1] is Terminally biotinylated beta-amyloid (Aβ42) (Homo sapiens, UniProt P05067). Nature of the assay: Aβ42 biotinylated (biotin-AB) oligomerization assay, NeutrAvidin capture ELISA. The assay is classed as biochemical. Particulars: approximate value; 1 hr oligomerization at room temperature; read-out: IC50 Aβ 42-bio. The procedure, abridged: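 Biotin-Aβ42, pretreated with HFIP/TFA to remove seeds, oligomerized 1 h at room temperature with compound in 20 mM sodium phosphate pH 7.5, 150 mM NaCl (DMSO up to 1%). Oligomers captured on NeutrAvidin plates, detected with streptavidin-HRP/TMB at 450 nm; IC50 approximate, in µM.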
In general terms: An ELISA detects its analyte on a solid surface through an enzyme-linked reagent.

The next assay concerns the target Aβ40 (Homo sapiens, UniProt P05067). Nature of the assay: ThT Aβ aggregation assay (kinetic Thioflavin T fluorescence). The assay is classed as biochemical. Particulars: 20 μM Aβ, DMSO control at 80 hr = 0% inhibition, number in parenthesis = compound ID 1027 in that experiment; for inhibition at 10 µM: compound 10 μM, read-out: % inhib Thioflavin T Aβ 40 10 μM; for inhibition at 5 µM: 80 h, compound 5 μm (so in the source), read-out: % inhib Thioflavin T Aβ 40 (5 μm). The method, then: Preparation of Aβ40 Stock Solutions
Aβ40 (1.0 mg) was pre-treated in a 1.5 mL microfuge tube with HFIP (1 mL) and sonicated for 20 min to disassemble any pre-formed Aβ aggregates. The HFIP was removed with a stream of argon and the Aβ dissolved in Tris base (5.8 mL, 20 mM, pH ˜10). The pH was adjusted to 7.4 with concentrated HCl (˜10 μL) and the solution filtered using a syringe filter (0.2 μm) before being used.
The kinetic ThT assay for Aβ aggregation is similar to that of Chalifour et al (Chalifour et al, 2003, J. Biol. Chem. 278:34874-81). Briefly, pre-treated Aβ40 or Aβ42 (40 μM in 20 mM Tris, pH 7.4) was diluted with an equal volume of 8 μM Thioflavin T (ThT) in Tris (20 mM, pH 7.4, 300 mM NaCl). Aliquots of Aβ/ThT (200 μL) were added to wells of a black polystyrene 96-well plate, followed by 2 μL of a compound in DMSO (variable concentration), or DMSO alone (controls). Incubations were performed in triplicate and were taken to contain 20 μM Aβ, various concentration of compound in 20 mM Tris, pH 7.4, 150 mM NaCl, 1% DMSO. Plates were covered with clear polystyrene lids and incubated at 37° C. in a Tecan Genios microplate reader.
Analysis of ThT and ThS Aggregation Assays
Fluorescence readings (λex=450 nm, λem=480 nm) were taken every 15 min., after first shaking at high intensity for 15 s and allowing to settle for 10 s before each reading. Active compounds attenuated the increase in fluorescence over time that occurred in controls. In FIGS. 1-7, the time this procedure was performed extended to 80 hours (rightmost part of X-axis), at which point fluorescence increase generally reached an asymptote. Applying a definition of DMSO control at 80 hr as 100% aggregation (0% inhibition) and DMSO control at 0 hr as 0% aggregation (100% inhibition), a % inhibition score where higher is better can be calculated for a given concentration of compound. By repeating this procedure over several concentrations, a […] (IC50) can be measured, as is given in the table below for some compounds.

By IC50 is commonly meant the point on the concentration scale where inhibition reaches its midpoint.

Terminally biotinylated beta-amyloid (Aβ42), sequence (P05067 672-713, species assumed): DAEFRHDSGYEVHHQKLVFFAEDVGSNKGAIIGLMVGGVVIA
Aβ40, sequence (P05067 672-711, species assumed): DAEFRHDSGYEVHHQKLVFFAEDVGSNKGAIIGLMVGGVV

On to `COCCN1CC=C(c2cc(N3CC(CN4CCCC4)C3)c3nonc3c2)CC1` [compound 1519], for which the IC50 in assay [1] amounted to 8.2 µM. Also, at Aβ40, the inhibition at 10 µM is 53%.

On to `c1n[nH]cc1-c1cc(N2CC(CN3CCCC3)C2)c2nonc2c1` [compound 1526], for which the IC50 in assay [1] was 5.8 µM. Moreover, the inhibition at 10 µM at Aβ40 stood at 60%.

`OC(c1ccccc1-c1cc(N2CC(CN3CCCC3)C2)c2nonc2c1)C(F)(F)F` (stereo not drawn) [compound 1474]: the IC50 in assay [1] came to 3.1 µM. The inhibition at 10 µM at Aβ40 was determined as 77%.

Consider `CS(=O)(=O)N1CC=C(c2cc(N3CC(CN4CCCC4)C3)c3nonc3c2)CC1` [compound 1518], for which, in assay [1], the IC50 was more than 20 µM. The inhibition at 10 µM at Aβ40 was found to be 35%.

Turning to `OC(c1ccc(-c2cc(N3CCC(N4CCCC4)CC3)c3nonc3c2)s1)C(F)(F)F` (stereo not drawn) [compound 1464], the IC50 in assay [1] was more than 20 µM. For the same molecule, at Aβ40, the inhibition at 10 µM was 35%.

For the molecule `CN1CCC=C(c2cc(N3CC(CN4CCCC4)C3)c3nonc3c2)C1` [compound 1524], the IC50 in assay [1] was found to be 14.9 µM. Moreover, at Aβ40, the inhibition at 10 µM amounted to 61%.

Regarding `CN(C)CCCN(C)c1cc(-c2cccc(C(O)C(F)(F)F)c2)cc2nonc12` (stereo not drawn) [compound 1465], the IC50 in assay [1] was more than 20 µM. Further, the inhibition at 5 µM on Aβ40 amounted to 44%.

With `Cc1cc(C)cc(-c2cc(N3CC(CN4CCCC4)C3)c3nonc3c2)c1` [compound 1506], the IC50 in assay [1] was determined as 4.44 µM. Moreover, the inhibition at 10 µM on Aβ40 was determined as 44%.

For the molecule `Brc1cc(N2CC(CN3CCOCC3)C2)c2nonc2c1` [compound 1470], the IC50 in assay [1] is more than 20 µM. Further, on Aβ40, the inhibition at 10 µM was determined as 62%.

Consider `O=C(c1cc(N2CC(CN3CCCC3)C2)c2nonc2c1)C(F)(F)F` [compound 1477], for which the IC50 in assay [1] is 1.83 µM. Moreover, the inhibition at 10 µM at Aβ40 amounted to 30%.

On to `OC(c1ccccc1-c1cc(N2CCC(N3CCCC3)CC2)c2nonc2c1)C(F)(F)F` (stereo not drawn) [compound 1467], for which, in assay [1], the IC50 was 5.1 µM. At Aβ40, the inhibition at 5 µM is 28% and the inhibition at 10 µM is 43%.

Take `FC(F)(F)c1ccccc1-c1cc(N2CC(CN3CCCC3)C2)c2nonc2c1` [compound 1514]: the IC50 in assay [1] is 11.2 µM. Further, the inhibition at 10 µM at Aβ40 turned out to be 57%.

As to `CC(=O)N1CC=C(c2cc(N3CC(CN4CCCC4)C3)c3nonc3c2)CC1` [compound 1503], in assay [1], the IC50 was more than 20 µM. The inhibition at 10 µM at Aβ40 was determined as 33%.

`Clc1ccc(-c2cc(N3CC(CN4CCCC4)C3)c3nonc3c2)cn1` [compound 1496]: in assay [1], the IC50 turned out to be 13.5 µM. For the same molecule, on Aβ40, the inhibition at 10 µM was 41%.

For `CC(=O)c1cccc(-c2cc(N3CC(CN4CCCC4)C3)c3nonc3c2)c1` [compound 1480], the IC50 in assay [1] is 6.33 µM. Further, at Aβ40, the inhibition at 10 µM amounted to 31%.

Take `CN(C)C1CCN(c2cc(-c3cccc(C(O)C(F)(F)F)c3)cc3nonc23)CC1` (stereo not drawn) [compound 1466]: the IC50 in assay [1] is 4.1 µM. The inhibition at 5 µM on Aβ40 was determined as 37%.

As for `COc1cccc(-c2cc(N3CC(CN4CCCC4)C3)c3nonc3c2)c1OC` [compound 1500], in assay [1], the IC50 is more than 20 µM. Further, the inhibition at 10 µM at Aβ40 stood at 51%.

As to `CCN(CC)C(=O)c1cc(N2CC(CN3CCCC3)C2)c2nonc2c1` [compound 1540], the IC50 in assay [1] was 1.8 µM. For the same molecule, at Aβ40, the inhibition at 5 µM stood at 41% and the inhibition at 10 µM came to 50%.

Take `CN1CC=C(c2cc(N3CC(CN4CCCC4)C3)c3nonc3c2)CC1` [compound 1517]: the IC50 in assay [1] was found to be 6.8 µM. Besides, on Aβ40, the inhibition at 10 µM was 33%.

Regarding `CS(=O)(=O)c1ccccc1-c1cc(N2CC(CN3CCCC3)C2)c2nonc2c1` [compound 1481], in assay [1], the IC50 worked out at 6.14 µM. Also, at Aβ40, the inhibition at 10 µM turned out to be 11%.

On to `c1cc(-c2cc(N3CC(CN4CCCC4)C3)c3nonc3c2)n[nH]1` [compound 1525], for which the IC50 in assay [1] amounted to 13.2 µM. Moreover, on Aβ40, the inhibition at 10 µM stood at 63%.

On to `COc1ccc(-c2cc(N3CC(CN4CCCC4)C3)c3nonc3c2)c(OC)c1` [compound 1515], for which the IC50 in assay [1] worked out at 16.7 µM. Also, the inhibition at 10 µM at Aβ40 was 61%.

As to `c1cncc(-c2cc(N3CC(CN4CCCC4)C3)c3nonc3c2)c1` [compound 1476], the IC50 in assay [1] turned out to be 12.2 µM. For the same molecule, on Aβ40, the inhibition at 10 µM came to 36%.
